Measurements reported in US11071317B2, “Sweetness enhancement” (Givaudan, S.A., priority 2015, dated 2021).
“And” between values parts separate entries of the source, which are not always exact repeats. Equal entries are not always repeated.

Assays:
Type in all cases: in vivo
[1] = system: expert tasters; experiment: Expert taster comparison, model beverage: water, 5% sucrose, 0.1% cellobiose vs base
Procedure: (§1) Samples were evaluated by a panel of 9 expert tasters. Tasters were asked to compare the base (water with 5% of sucrose) with the model beverage (water, 5% of sucrose, and 0.1% cellobiose) focusing on the overall quality of sweetness, particularly on the enhancement of the upfront sweetness, overall sweetness intensity.

[2] = system: expert tasters; experiment: Expert taster comparison, model beverage: water, 7% sucrose, 2% cellobiose vs base
Procedure: as §1, with “6” for “9”, “7%” for “5%”, “2%” for “0.1%”

[3] = system: expert tasters; experiment: Expert taster comparison, lemon lime beverage (water, sodium benzoate, 180 ppm Reb-A, citric acid) with 4% cellobiose vs base, panel of 8 (Example 12); conditions: 2000 ppm sodium benzoate, 500 ppm citric acid, 850 ppm lemon lime flavor
Procedure: (§2) Samples were evaluated by a panel of 8 expert tasters. Tasters were asked to compare the base (water, 2000 ppm sodium benzoate, 180 ppm Reb-A, 500 ppm citric acid, 850 ppm lemon lime flavor) with the model beverage (water, 2000 ppm sodium Benzoate, 180 ppm Reb-A, 500 ppm citric acid, 850 ppm lemon lime flavor, 4% cellobiose) focusing on the overall quality of sweetness, particularly on the enhancement of the upfront sweetness, overall sweetness intensity.

[4] = system: expert tasters; experiment: Expert taster comparison, plain zero-fat yoghurt with 180 ppm RebA and 4% cellobiose vs base; conditions: 180 ppm RebA
Procedure: Yoghurt RebA 180 ppm+4% cellobiose
(§3) In a plain zero-fat yoghurt, sweetened with rebaudioside A (180 ppm), cellobiose was tested at 4% for sweetness enhancement. Samples were evaluated by a panel of 6 expert tasters. Tasters were asked to compare the base (plain yoghurt+180 ppm RebA) with the model yoghurt (plain yoghurt, 180 ppm RebA 4% cellobiose) focusing on the overall quality of sweetness.

[5] = system: trained panelists; experiment: Descriptor scoring (overall, upfront, delayed, lingering sweet; 100-point scale) of 80 ppm Reb-A in water with 4% cellobiose
Procedure: The test was carried out by a panel of 14 trained panelists. The panelists scored 4 descriptors (overall sweet, upfront sweet, delayed sweet and lingering sweet) on a 100-point scale over 4 replications for a total of […].

[6] = system: expert tasters; experiment: Expert taster comparison, lemon lime beverage (water, sodium benzoate, 90 ppm sucralose, citric acid) with 4% cellobiose vs base; conditions: 2000 ppm sodium benzoate, 500 ppm citric acid, 850 ppm lemon lime flavor
Procedure: as §2, with “of 6” for “of 8”, “benzoate, 90” for “benzoate, 180”, “ppm sucralose,” for “ppm Reb-A,”, “sodium benzoate, 90” for “sodium Benzoate, 180”

[7] = system: expert tasters; experiment: Expert taster comparison, lemon lime beverage (water, sodium benzoate, 180 ppm Reb-A, citric acid) with 4% cellobiose vs base, panel of 7 (Example 11); conditions: 2000 ppm sodium benzoate, 500 ppm citric acid, 850 ppm lemon lime flavor
Procedure: as §2, with “of 7” for “of 8”

[8] = system: expert tasters; experiment: Expert taster comparison, model beverage: water, 200 ppm sucralose, 2% cellobiose vs base
Procedure: as §1, with “7” for “9”, “(200 ppm” for “(water with 5%”, “sucralose)” for “sucrose)”, “200 ppm” for “5%”, “sucralose, 2%” for “sucrose, and 0.1%”

[9] = Sweetness and mouthfeel equivalence of sucrose + cellobiose solutions to sucrose solutions (general statement)
[10] = system: sweet sensitive panelists; experiment: Ranking of 4% cellobiose against sucrose standards (1% and 1.5%) in water for overall sweetness intensity, r-index analysis
From the text: 20 sweet sensitive panelists ranked 4% cellobiose and sucrose standards (1% and 1.5%) for overall sweetness intensity over 2 replications for a total of 40 observations.

[11] = system: expert tasters; experiment: Expert taster comparison, model beverage: water, 5% sucrose, 2% cellobiose vs base
Procedure: as §1, with “13” for “9”, “2%” for “0.1%”

[12] = system: expert tasters; experiment: Expert taster comparison, model beverage: water, 95 ppm sucralose, 2% cellobiose vs base
Procedure: as §1, with “8” for “9”, “(95 ppm” for “(water with 5%”, “sucralose)” for “sucrose)”, “95 ppm” for “5%”, “sucralose, 2%” for “sucrose, and 0.1%”

[13] = system: expert tasters; experiment: Expert taster comparison, plain zero-fat yoghurt with 90 ppm sucralose and 4% cellobiose vs base; conditions: 90 ppm sucralose
Procedure: as §3, with “sucralose (90” for “rebaudioside A (180”, “yoghurt+90” for “yoghurt+180”, “sucralose)” for “RebA)”, “90” for “180”, “sucralose,” for “RebA”

[14] = system: expert tasters; experiment: Expert taster comparison, carbonated lemon lime beverage (sodium benzoate, 90 ppm Sucralose, citric acid) with 4% cellobiose vs base; conditions: carbonated water, 2000 ppm sodium benzoate, 500 ppm citric acid, 850 ppm lemon lime flavor
Procedure: as §2, with “of 7” for “of 8”, “base (carbonated water,” for “base (water,”, “benzoate, 90” for “benzoate, 180”, “ppm Sucralose,” for “ppm Reb-A,”, “sodium benzoate, 90” for “sodium Benzoate, 180”

[15] = system: sweet sensitive panelists; experiment: Ranking of 5% sucrose+4% cellobiose against sucrose standards (6%, 7% and 8%) in water for overall sweetness intensity, r-index analysis; conditions: 4% cellobiose in combination with 5% sucrose
From the text: 20 sweet sensitive panelists rank ranked 5% sucrose+4% cellobiose and sucrose standards (6%, 7% and 8%) in water for overall sweetness intensity over 2 replications for a total of 40 observations. […] The expected sucrose equivalence (SE) of 4% cellobiose on top of 5% sucrose would be 6.25% (1.25%+5%) but the perceived SE was 7%, showing true sweetness enhancement.

[16] = 4% cellobiose added to 80 ppm Reb-A in water, vs unaltered 80 ppm Reb-A base

## OC[C@H]1O[C@@H](O[C@H]2[C@H](O)[C@@H](O)C(O)O[C@@H]2CO)[C@H](O)[C@@H](O)[C@@H]1O (mixture of isomers) [cellobiose]
[1]
  profile: rounded profile
  sweetness enhancement: significant sweetness enhancement
[2]
  profile: rounded profile
  sweetness enhancement: significant sweetness enhancement
  upfront sweetness enhancement: upfront sweetness enhancement
[3]
  aroma profile: rounded aroma profile
  mouthfeel: improved mouthfeel
  sweetness enhancement: significant sweetness enhancement
  upfront sweetness enhancement: upfront sweetness enhancement
[4]
  overall balance and quality of sweetness: significantly better overall balance and quality of sweetness
  sweetness: much sweeter
[5]; [16]
  delayed sweetness: significantly decreased
  lingering sweetness: significantly decreased
  overall sweetness: significantly increased
  upfront sweetness: significantly increased
[5]; 80 ppm Reb-A and 4% cellobiose, vs isosweet 150 ppm Reb-A sample
  upfront sweetness: significantly increased
[5]; aqueous solution of 80 ppm Reb-A and 4% cellobiose
  Reb-A aqueous solution of the same sweetness: 150 ppm Reb-A
[6]
  aroma profile: rounded aroma profile
  sweetness enhancement: significant sweetness enhancement
  upfront sweetness enhancement: upfront sweetness enhancement
[7]
  aroma profile: rounded aroma profile
  mouthfeel: improved mouthfeel
  sweetness enhancement: significant sweetness enhancement
  upfront sweetness enhancement: upfront sweetness enhancement
[8]
  mouthfeel: better mouthfeel
  offnotes: decreased offnotes
  profile: rounded profile
  sweetness enhancement: significant sweetness enhancement
  upfront sweetness enhancement: upfront sweetness enhancement
[9]; solution of 2% sucrose and 4% cellobiose
  sucrose solution of similar sweetness and mouthfeel characteristics: ~4 % sucrose
[9]; solution of 5% sucrose+4% cellobiose
  sucrose solution of very similar taste: ~7 % sucrose
[9]; solution of 7% sucrose+4% cellobiose
  sucrose solution of very similar taste: ~9 % sucrose
[10]; 4% cellobiose
  sweetness rated as sweet as sucrose: 1.25 % sucrose
[10]; 4% cellobiose in water
  inherent sweetness on its own: not inherently sweet
[10]; 4% cellobiose in water, r-index analysis, 95% confidence level, p-value<0.05
  overall sweetness intensity relative to sucrose standards: < 1.5 % sucrose and > 1.0 % sucrose
[11]
  mouthfeel: better mouthfeel
  profile: rounded profile
  sweetness enhancement: significant sweetness enhancement
  upfront sweetness enhancement: upfront sweetness enhancement
[12]
  mouthfeel: better mouthfeel
  offnotes: decreased offnotes
  profile: rounded profile
  sweetness enhancement: significant sweetness enhancement
  upfront sweetness enhancement: upfront sweetness enhancement
[13]
  balance and quality of sweetness: significantly improved balance and quality of sweetness
  sweetness: much sweeter
[14]
  aroma profile: rounded aroma profile
  mouthfeel: improved mouthfeel
  sweetness enhancement: significant sweetness enhancement
  upfront sweetness enhancement: upfront sweetness enhancement
[15]
  sweetness enhancement: sweetness enhancement beyond an additive effect
